Earlier results in patent publication US5200396A, “Method of treating neurodegenerative disorders using epidermal growth factor” (Zambon Group S.p.A., priority 1990, dated 1993).

Test system: rats with lesion of the nigrostriatal pathway
Settings: lesion of the nigrostriatal pathway model; Brain Research, 459, 398, (1988)

**Q.** Which “efficacy in changing the rotational behaviour of the animal” value does the source give for “NGF: growth factor acting as trophic factor towards some neuronal types” here?
**A.** The value was “did not show, in practice, any efficacy”.
